Results taken from patent EP4321514B1, “COMPOUND HAVING ALK INHIBITORY ACTIVITY, PREPARATION METHOD THEREFOR AND USE THEREOF” (CGeneTech (Suzhou, China) Co., Ltd., priority 2021, dated 2022).

Legend:
[1] = target: T1, ALK kinase (Homo sapiens, UniProt Q9UM73); assay: ALK kinase inhibition test; assay type: biochemical; settings: 0.4 ng/well ALK kinase, 5 µM ATP, fluorescence 665 nm/615 nm
T1 construct: purchased Thermo Scientific
Method: The inhibitory activity of the compound in the present application on ALK kinase will be determined through in vitro tests, which can be represented by IC50 value.
4 µL of the diluted solution of the test compound and 2 µL of 0.4 ng/well ALK kinase solution (Thermo Scientific) were added into reaction wells in turn, incubated for 10 min at room temperature, then 4 µL of 0.7 µM biotin-labeled tyrosine kinase substrate and 5 µM ATP solution were added to start the kinase reaction.
Software Graphpad Prism 6 was used to fit an IC50 curve and calculate an IC50 value.

[2] = test system: human anaplastic large cell lymphoma cell Karpas 299; assay: ALK gene fusion cell proliferation inhibition test (CCK-8); assay type: cell-based; settings: 72 hours incubation, CCK-8, absorbance at 450 nm
Method: The 96-well culture plate was placed in a 5 % carbon dioxide incubator at 37 °C to be cultured overnight. A test compound was formulated into a 10 mM storage solution with DMSO, and the 10mM storage solution was gradually diluted with DMSO at a dilution ration of 1:4 to obtain 9 concentration gradients of solutions of the test compound. The test compound was diluted with culture medium to 5 times the set final concentration of corresponding action, and the diluted solution of the test compound was added at 25 µL/well to corresponding cell wells according to the set compound layout, and then incubated in a 5 % carbon dioxide incubator at 37 °C for 72 hours. After 72 hours, 10 µL of CCK-8 was added into a cell culture medium, and the culture solution was sucked from adherent cells, then a freshly prepared CCK-8 detection solution was added and the cells were incubated in a 37 °C incubator for 1-4 hours. The absorbance at 450 nm wavelength on the SpectraMax i3X Microplate Reader was measured after gently shaking, with the absorbance at 650 nm as a reference.

T1 sequence (Q9UM73 19-1620): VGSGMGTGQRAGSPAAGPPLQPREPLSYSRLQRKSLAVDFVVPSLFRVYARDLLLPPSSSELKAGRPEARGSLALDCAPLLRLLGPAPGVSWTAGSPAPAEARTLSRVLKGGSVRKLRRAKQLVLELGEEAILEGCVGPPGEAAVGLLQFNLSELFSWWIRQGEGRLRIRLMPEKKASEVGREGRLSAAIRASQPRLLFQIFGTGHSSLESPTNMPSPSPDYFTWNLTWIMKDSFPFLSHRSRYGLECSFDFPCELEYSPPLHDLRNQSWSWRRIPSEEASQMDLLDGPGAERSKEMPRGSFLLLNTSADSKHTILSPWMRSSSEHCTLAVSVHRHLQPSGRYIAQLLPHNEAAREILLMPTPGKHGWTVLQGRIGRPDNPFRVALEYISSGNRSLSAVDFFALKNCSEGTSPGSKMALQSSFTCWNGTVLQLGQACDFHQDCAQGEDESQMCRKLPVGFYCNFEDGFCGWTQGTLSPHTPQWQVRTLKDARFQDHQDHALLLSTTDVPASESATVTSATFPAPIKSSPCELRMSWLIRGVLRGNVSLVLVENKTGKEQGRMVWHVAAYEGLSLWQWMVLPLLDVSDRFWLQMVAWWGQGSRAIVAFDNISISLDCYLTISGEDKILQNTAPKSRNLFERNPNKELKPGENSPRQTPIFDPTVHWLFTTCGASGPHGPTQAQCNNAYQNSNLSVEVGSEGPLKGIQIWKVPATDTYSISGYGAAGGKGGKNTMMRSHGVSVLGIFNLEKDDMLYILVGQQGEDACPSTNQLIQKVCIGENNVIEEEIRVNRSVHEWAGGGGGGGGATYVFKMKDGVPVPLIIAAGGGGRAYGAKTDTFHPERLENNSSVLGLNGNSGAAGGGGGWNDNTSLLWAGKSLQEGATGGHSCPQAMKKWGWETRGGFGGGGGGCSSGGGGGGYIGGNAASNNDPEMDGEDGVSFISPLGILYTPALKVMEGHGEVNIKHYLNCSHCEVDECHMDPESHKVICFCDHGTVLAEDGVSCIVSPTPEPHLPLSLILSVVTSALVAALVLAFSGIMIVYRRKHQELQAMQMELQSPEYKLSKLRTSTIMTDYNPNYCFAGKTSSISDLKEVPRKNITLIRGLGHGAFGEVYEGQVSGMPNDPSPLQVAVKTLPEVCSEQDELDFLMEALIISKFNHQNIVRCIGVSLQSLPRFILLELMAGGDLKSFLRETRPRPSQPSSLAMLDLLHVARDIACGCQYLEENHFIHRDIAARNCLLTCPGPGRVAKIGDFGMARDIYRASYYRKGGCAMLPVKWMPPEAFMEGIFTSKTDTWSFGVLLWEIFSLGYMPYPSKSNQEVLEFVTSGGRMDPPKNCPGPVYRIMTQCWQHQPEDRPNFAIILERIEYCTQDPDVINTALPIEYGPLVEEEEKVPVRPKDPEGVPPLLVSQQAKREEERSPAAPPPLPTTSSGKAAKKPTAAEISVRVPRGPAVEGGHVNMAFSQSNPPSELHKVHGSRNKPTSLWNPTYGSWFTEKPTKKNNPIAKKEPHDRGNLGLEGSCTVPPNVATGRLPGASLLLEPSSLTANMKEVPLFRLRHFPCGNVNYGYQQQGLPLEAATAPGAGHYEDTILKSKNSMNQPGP

IC50 [1]: 3.73 nM
IC50 [2]: 11.7 nM
Structure (SMILES): C#Cc1ccc2c3c([nH]c2c1)C(C)(C)c1cc(N2CCN(C)CC2)c(Cl)cc1C3=O [Example E19, 9-chloro-3-ethynyl-6,6-dimethyl-8-(4-methylpiperazin-1-yl)-5,6-dihydro-11H-benzo[b]carbazol-1 1-one]
